How the values were obtained:
[1] = tested on: CD69 by B lymphocytes in human whole blood; assay: CD69 Whole Blood Assay; format: cell-based; conditions: Lymphocyte; human whole blood activated with goat F(ab')2 anti-human IgM, 20 hours; CD69 positive cells that are also CD20 positive
Source text: A CD69 Whole Blood Assay can be conducted on Formula I compounds to determine the ability of compounds to inhibit the production of CD69 by B lymphocytes in human whole blood activated by crosslinking surface IgM with goat F(ab′)2 anti-human IgM (Example 907).
Human blood is obtained from healthy volunteers, with the following restrictions: 1 week drug-free, non-smokers. Blood (approximately 20 mls to test 8 compounds) is collected by venipuncture into Vacutainer® (Becton, Dickinson and Co.) tubes with sodium heparin.
Solutions of Formula I compounds at 10 mM in DMSO are diluted 1:10 in 100% DMSO, then are diluted by three-fold serial dilutions in 100% DMSO for a ten point dose-response curve. The compounds are further diluted 1:10 in PBS and then an aliquot of 5.5 μl of each compound is added in duplicate to a 2 ml 96-well plate; 5.5 μl of 10% DMSO in PBS is added as control and no-stimulus wells. Human whole blood—HWB (100 μl) is added to each well. After mixing the plates are incubated at 37° C., 5% CO2, 100% humidity for 30 minutes. […] Data acquired and Mean Fluorescence Intensity values were obtained using BD Biosciences DIVA Software. Results are initially analyzed by FACS analysis software (Flow Jo). […] The IC50 values are calculated by Prism version 5, using a nonlinear regression curve fit.

[2] = target: full length human wildtype Btk (Homo sapiens (Human), UniProt Q06187); assay: Biochemical Btk Kinase Assay
full length human wildtype Btk, sequence (Q06187 whole entry): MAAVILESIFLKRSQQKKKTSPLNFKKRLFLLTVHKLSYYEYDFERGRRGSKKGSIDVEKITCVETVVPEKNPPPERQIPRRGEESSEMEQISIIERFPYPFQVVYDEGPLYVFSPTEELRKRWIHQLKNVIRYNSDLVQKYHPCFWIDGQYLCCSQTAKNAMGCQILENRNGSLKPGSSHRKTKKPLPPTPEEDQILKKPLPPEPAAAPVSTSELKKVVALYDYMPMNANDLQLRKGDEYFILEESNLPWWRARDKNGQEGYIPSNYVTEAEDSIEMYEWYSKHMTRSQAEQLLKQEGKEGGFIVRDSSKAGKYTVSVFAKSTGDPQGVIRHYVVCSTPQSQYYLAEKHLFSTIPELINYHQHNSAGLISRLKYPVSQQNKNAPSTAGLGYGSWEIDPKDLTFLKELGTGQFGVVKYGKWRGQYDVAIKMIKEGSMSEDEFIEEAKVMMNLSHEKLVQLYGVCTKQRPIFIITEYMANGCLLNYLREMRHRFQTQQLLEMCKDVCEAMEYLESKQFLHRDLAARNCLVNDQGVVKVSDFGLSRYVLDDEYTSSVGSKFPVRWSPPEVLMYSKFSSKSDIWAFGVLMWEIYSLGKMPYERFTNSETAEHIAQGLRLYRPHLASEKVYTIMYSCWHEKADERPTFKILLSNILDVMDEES
Description: Formula I compounds were tested by a standard biochemical Btk Kinase Assay (Example 901). A generalized procedure for a standard biochemical Btk Kinase Assay that can be used to test Formula I compounds is as follows. […] Btk enzyme is prepared as follows: full length human wildtype Btk (accession number NM-000061) with a C-terminal V5 and 6× His tag was subcloned into pFastBac vector for making baculovirus carrying this epitope-tagged Btk. Generation of baculovirus is done based on Invitrogen's instructions detailed in its published protocol “Bac-to-Bac Baculovirus Expression Systems” (Cat. Nos. 10359-016 and 10608-016). […] A quantity of 1.25 μL of compounds in 5% DMSO is transferred to a 96-well ½ area Costar polystyrene plate. […] A quantity of 18.75 μL of master mix minus enzyme (as a negative control) and master mix plus enzyme is transferred to appropriate wells in 96-well ½ area costar polystyrene plate. […] The plate is read using time-resolved fluorescence with a Perkin Elmer Envision using excitation filter 330 nm, emission filter 665 nm, and 2nd emission filter 615 nm. IC50 values are subsequently calculated. Alternatively, the Lanthascreen assay can be used to evaluate Btk activity through quantification of its phosphorylated peptide product. […] Detection is determined on a Perkin Elmer Envision with 340 nm excitation and emission at 495 nm and 520 nm. […]

Row | melting point | Structure (SMILES) | IC50 [1] | IC50 [2]
1 | 174 to 176 °C | CCn1ccc(Nc2cc(-c3cccc(N4Cc5cc(C(C)(C)C)ccc5C4=O)c3CO)nn(C)c2=O)n1 [Compound 102, 5-tert-Butyl-2-(3-(5-(1-ethyl-1H-pyrazol-3-ylamino)-1-methyl-6-oxo-1,6-dihydropyridazin-3-yl)-2-(hydroxymethyl)phenyl)isoindolin-1-one] | – | –
2 | 236 to 238 °C | Cn1nc(-c2cccc(N3Cc4cc(C(C)(C)C)ccc4C3=O)c2CO)cc(Nc2ccncn2)c1=O [Compound 103, 5-tert-Butyl-2-(2-(hydroxymethyl)-3-(1-methyl-6-oxo-5-(pyrimidin-4-ylamino)-1,6-dihydropyridazin-3-yl)phenyl)isoindolin-1-one] | – | –
3 | 236 to 237 °C | Cn1nc(-c2cccc(N3Cc4cc(C(C)(C)C)ccc4C3=O)c2CO)cc(Nc2ccccn2)c1=O [Compound 104, 5-tert-Butyl-2-(2-(hydroxymethyl)-3-(1-methyl-6-oxo-5-(pyridin-2-ylamino)-1,6-dihydropyridazin-3-yl)phenyl)isoindolin-1-one] | – | –
4 | 202 to 204 °C | Cn1nc(-c2cccc(N3Cc4cc(C(C)(C)C)ccc4C3=O)c2CO)cc(Nc2ccn(C3CNC3)n2)c1=O [Compound 105, 2-(3-(5-(1-(Azetidin-3-yl)-1H-pyrazol-3-ylamino)-1-methyl-6-oxo-1,6-dihydropyridazin-3-yl)-2-(hydroxymethyl)phenyl)-5-tert-butylisoindolin-1-one] | – | –
5 | 145 to 147 °C | CCN(C)c1ccc2c(c1)CN(c1cccc(-c3cc(Nc4cc5n(n4)CCN(C)C5)c(=O)n(C)n3)c1CO)C2=O [Compound 106, 5-(Ethyl(methyl)amino)-2-(2-(hydroxymethyl)-3-(1-methyl-5-(5-methyl-4,5,6,7-tetrahydropyrazolo[1,5-a]pyrazin-2-ylamino)-6-oxo-1,6-dihydropyridazin-3-yl)phenyl)isoindolin-1-one] | – | –
6 | 240 to 242 °C | Cc1c(-c2cc(Nc3cc4n(n3)CCN(C)C4)c(=O)n(COP(=O)([O-])[O-])n2)cccc1N1Cc2cc(C(C)(C)C)sc2C1=O.[Na+].[Na+] [Compound 108, Sodium (3-(3-(2-tert-Butyl-6-oxo-4H-thieno[2,3-c]pyrrol-5(6H)-yl)-2-methylphenyl)-5-(5-methyl-4,5,6,7-tetrahydropyrazolo[1,5-a]pyrazin-2-ylamino)-6-oxopyridazin-1(6H)-yl)methyl Phosphate] | – | –
7 | – | CN1CCn2nc(Nc3cc(-c4cccc(N5Cc6cc(C(C)(C)C)ccc6C5=O)c4CO)nn(C)c3=O)cc2C1 [Compound 145, 5-tert-butyl-2-[2-(hydroxymethyl)-3-[1-methyl-5-({5-methyl-4H,5H,6H,7H-pyrazolo[1,5-a]pyrazin-2-yl}amino)-6-oxo-1,6-dihydropyridazin-3-yl]phenyl]-2,3-dihydro-1H-isoindol-1-one] | 91 nM | –

Row | Structure (SMILES) | melting point | IC50 [1] | IC50 [2]
8 | Cc1c(-c2cc(Nc3cc4n(n3)CCN(C)C4)c(=O)[nH]n2)cccc1N1Cc2ccc(C(C)(C)C)cc2C1=O [Compound 107, 6-tert-Butyl-2-(2-methyl-3-(5-(5-methyl-4,5,6,7-tetrahydropyrazolo[1,5-a]pyrazin-2-ylamino)-6-oxo-1,6-dihydropyridazin-3-yl)phenyl)isoindolin-1-one] | 208 to 210 °C | 461 nM | 14 nM
